The values that follow come from patent US8071645B2, “Systems and methods for treating human inflammatory and proliferative diseases and wounds, with fatty acid metabolism inhibitors and/or glycolytic inhibitors” (The Regents of the University of Colorado, priority 2003, dated 2011).

The test system of experiment [1] is cell-surface Fas on drug sensitive L1210 cells. As to the kind of experiment: cell-surface Fas expression on L1210 cells by flow cytometry. Type of experiment: cell-based. As to the method:
Flow Cytometry. Cells were harvested, counted, and resuspended at 10^6 cells/100 μl of PBS containing 2.5% fetal calf serum in preparation for flow cytometric analysis. Cells were stained for intracellular H202 using 6-carboxy-2′,7′-dichlorodihydrofluorescein diacetate (DCF-DA, Molecular Probes, Eugene, Oreg.). Briefly, cells were incubated at 37° with 1 mM DCF-DA for 20 minutes, washed twice in PBS containing 2.5% fetal calf serum and analyzed flow cytometrically. Mitochondrial membrane potential was assessed using Mitotracker Red (CM-H2XROS, Molecular Probes, Eugene, Oreg.). […] The cells were incubated at 37° for 20 minutes, washed twice in PBS containing 2.5% fetal calf serum and analyzed flow cytometrically. Data were acquired on a Coulter Elite Epics or Excel flow cytometer (Coulter, Hialeah, Fla.) and analyzed with CellQuest software, (Becton Dickinson, San Jose, Calif.). […] Each sample population was classified for cell size (forward scatter) and complexity (side scatter), gated on a population of interest and evaluated using 5,000 cells. […]
Drug sensitive L1210 cells and drug resistant L1210/DDP cells were cultured with etomoxir for 24 hours (Tx indicates treatment with etomoxir). The level of cell-surface Fas was determined using fluorochrome conjugated anti-Fas antibodies and flow cytometry. The Fas levels are measured relative to a control for staining artifacts. […]
(A flow cytometer gives signals particle by particle.)

In experiment [2] the test system is RD cells (rhabdomyosarcoma cells). As to the kind of experiment: percent death of RD cells by flow cytometry. Type of experiment: cell-based. The procedure: Dot plots as a function of live versus dead cells. The cells were cultured at a concentration of 0.5 to 1 million cells per ml. Cells were untreated or treated with etomoxir or 2-deoxy-D-glucose at a concentration of 2.5 mM at the indicated concentrations for either 24 or 48 hours. In additional experiments, under each of these culture conditions, the cells were cultured for 24 hours at which time point, polyclonal anti-UCP-2 was added at a 1:1000 dilution of stock provided by Alpha Diagnostics, San Antonio, Tex. Cells were harvested and analyzed by flow cytometry. Each dot on the dot plots of FIGS. 1, 3, 5, 7, 9, and 11 represents one cell. Five thousand cells were assessed for forward scatter (FS), as a function of cell size, versus side scatter (SS), as a function of cellular granularity. The upper ellipse represents live cells by these criterion and the lower ellipse in each dot plot represents the dead cells.
Statistical Analysis, Percents, and Geometric Mean Values Percents. Gating is a tool provided by Cell Quest software and allows for the analysis of a certain population of cells. Gating around both the live and dead cell populations gave a percent of the cell numbers that was in each population. After the gates were drawn, a percent value of dead cells was calculated by taking the number of dead cells divided by the number of total cells and multiplying by one hundred.
Referring to FIGS. 29 and 30, RD cells (rhabdomyosarcoma cells—not drug resistant), cultured as described above under “Materials and Methods” were untreated or treated with etomoxir, with 2-deoxy-D-glucose, or with a combination of etomoxir and 2-deoxy-D-glucose, at concentrations indicated in FIG. 29 for 24 hours. Cells were harvested and analyzed by flow cytometry. […] The percent of cell deaths for RD cells after 24 hours was: (a) 31% when untreated, (b) 57% when treated with etomoxir alone, (c) 46% when treated with 2-deoxy-D-glucose alone, and (d) 66% when treated with the combination of etomoxir and 2-deoxy-D-glucose.
Referring to FIGS. 33 and 34, RD cells, cultured as described in Example 22, were untreated or treated with etomoxir, with 2-deoxy-D-glucose, or with a combination of etomoxir and 2-deoxy-D-glucose, at concentrations indicated in FIG. 33 for 48 hours. Cells were harvested and analyzed by flow cytometry. […] The percent of cell deaths for RD cells after 48 hours was: (a) 36% when untreated, (b) 64% when treated with etomoxir alone, (c) 63% when treated with 2-deoxy-D-glucose alone, and (d) 68% when treated with the combination of etomoxir and 2-deoxy-D-glucose.

Turning to `CCOC(=O)C1(CCCCCCOc2ccc(Cl)cc2)CO1` (stereo not shown) [etomoxir, 2-(6-(4-chlorophenoxy)-hexyl)-oxirane-2-carboxylic acid ethyl ester], in experiment [1] (cultured with etomoxir for 24 hours, FIG. 7), the “cell surface Fas” value was “significant increases”. In experiment [1] (etomoxir with methotrexate, FIG. 8), the “methotrexate-induced increases in Fas” value is listed as “increases”. Also, the “percent of cell deaths” value in experiment [2] (24 hours, concentrations as in FIG. 29) is recorded as 57%; in experiment [2] (48 hours, concentrations as in FIG. 33) it was 64%.
